Results reported in EP2557075A1, “New triazene compounds for treating cancer” (Trin Therapeutics GmbH, priority 2011, dated 2013).
Where two headings read alike, the source gives them in different places.

How the values were obtained:
HepG2 = assay: Intracellular metabolisation of triazenes in HepG2 cell culture (Experiment 1); type: in vitro ADME; details: HepG2, 100nmol/ml, 100% FCS, binnen 6 Stunden
Procedure: (§1) Es wird gezeigt, dass Verbindungen nach Beispiel 1 schneller und in größerer Menge intrazellulär metabolisiert werden als die als Vergleichssubstanzen eingesetzten Verbindungen nach Präparat 2 und 5 (entsprechend Verbindungen nach Präparat 2 und Beispiel 2a jeweils der WO 2009/004060).
(§2) Die getesteten Verbindungen wurden wie folgt gelöst: • Erfindungsgemäße Verbindung: • Beispiel 1 : in 20 mg/ml DMSO
(§3) Vergleichssubstanzen: • Präparat 2: in 50mg/ml DMSO, • Präparat 5: in 50mg/ml Wasser.
(§4) Alle drei Substanzen wurden äquimolar in einer Dosis von 100nmol/ml auf 1 x 10^7 HepG2 bzw. MCF-7-Zellen gegeben. Als Zellkulturmedium wurde 100% fötales Kälberserum (FCS) verwendet. Für den Versuch wurde der Gehalt aus Ausgangsprodukt und Metaboliten im Zellüberstand nach 1, 3 und 6 (HepG2) bzw. 1,3 und 20 Stunden (MCF-7) Inkubationszeit ermittelt. Alle drei Substanzen zeigten in Kontrollversuchen mit 100% FCS nach 40 Stunden metabolische Stabilität.

MCF-7-Zellen = assay: Intracellular metabolisation of triazenes in MCF-7 cell culture (Experiment 1); type: in vitro ADME; details: MCF-7, 100nmol/ml, 100% FCS
Procedure: as §1, §2, §3, §4

HCT-8 = assay: Intracellular uptake of triazenes in HCT-8 cells (Experiment 2); type: in vitro ADME; details: HCT-8, 50.000ng/ml, 10.000ng/ml O6-Benzylguanin, first two time points (2, 4 Stunden)
Procedure: Es wird gezeigt, dass Verbindungen nach Beispiel 1 schneller und in größerer Menge intrazellulär aufgenommen werden als die als Vergleichssubstanzen eingesetzten Verbindungen nach Präparat 2 und 5 (entsprechend Verbindungen nach Präparat 2 und Beispiel 2a jeweils der WO 2009/004060).
Die getesteten Verbindungen wurden wie folgt gelöst: • Erfindungsgemäße Verbindung: • Beispiel 1: in 20 mg/ml DMSO
as §3
Alle drei Substanzen wurden in einer Dosis von 50.000ng/ml auf 2 x 10^7 HepG2 und HCT-8 sowie 2 x 10^6-MDA-MB231 Zellen gegeben. Als Zellkulturmedium wurde 100% (MDA-MB231: 50%) fötales Kälberserum (FCS) verwendet. Zudem wurde bei den Versuchen mit HepG2 und HCT-8 noch 10.000ng/ml O6-Benzylguanin zugesetzt. Für den Versuch wurde die intrazelluläre Konzentration von Ausgangsprodukt und Metaboliten nach 2, 4 und 20 (HepG2), 2 und 3,5 und 20 Stunden (MDA-MB231) und 2,4, 24 und 48 Stunden (HCT-8) Inkubationszeit ermittelt. Alle drei Substanzen zeigten in Kontrollversuchen mit 100% FCS nach 40 Stunden metabolische Stabilität.

[1] = system: drei Pankreaskrebszelllinien; assay: IC50 of triazenes in three pancreatic cancer cell lines (Experiment 4); type: cell-based
Source text: Verschiedene Triazene wie erfindungsgemäße Verbindungen nach Beispiel 1, DTIC, TMZ sowie Verbindungen nach Präparat 2 und 5 (entsprechend Verbindungen nach Präparat 2 und Beispiel 2a jeweils der WO 2009/004060) sowie Verbindungen nach Beispiel 2 und 33 der DE1793115 wurden in DMSO bzw. Wasser gelöst.

Mammakarzinome = assay: Benzidine-induced mammary carcinoma in female rats (Experiment 6); type: in vivo, Ratten; details: s.c. or peroral, observation to day 30, percent median vs. start of treatment
Procedure: Die Mammakarzinome werden durch subkutane Injektionen von in physiologischer Kochsalz-Lösung suspendiertem Benzidin an weiblichen Ratten induziert. Je nach Art des Rattenstammes sind dazu unterschiedlich hohe Gesamtdosen und verschieden lange Induktionszeiten erforderlich. Bei zwei untersuchten Wistar-Stämmen (Züchter: Spiegel bzw. Winkelmann) erscheinen die Tumoren nach einer Induktionszeit von 150-330 Tagen und einer Gesamtdosis von 1000 bis 1225mg/kg Benzidin subkutan. Bei zwei verschiedenen Sprague-Dawley-Stämmen (Züchter: Mus Rattus AG bzw. Winkelmann) genügt schon eine einzige Benzidin-Injektion von 150mg/kg s.c., um nach 60-180 Tagen die Mammakarzinome entstehen zu lassen. Die Mammakarzinome entwickeln sich fast immer multipel. Acht oder mehr Tumoren pro Tier sind keine Seltenheit. Die Tumoren wachsen ziemlich schnell und führen etwa 30 bis 1 20 Tage nach Tastbarwerden zum Tode der Ratten. Nach 30 Tagen ist eine Tumorgröße von 6g zu erwarten (Figur 1 aus DE 01 7931 15).
Die Vergleichssubstanzen wurden für 30 Tage täglich s.c, oder peroral in Dosierungen zwischen 50-200mg/kg verabreicht. Die Verbindung nach Beispiel 1 wurde s.c. über die ersten 7 Tage in Dosierungen zwischen 20 und 100mg/kg, so dann in Dosierungen von 200 bis 1000mg/kg (in Stufen von 100mg/kg) für weitere 10 Tage appliziert. Bis zum Tag 30 erfolgte keine weitere Behandlung. […]

CEM = assay: Growth inhibition (IC50) in leukaemic CEM cells (Experiment 7); type: cell-based; details: Homo sapiens, CCRF-CEM, 24 Stunden
Source text: Hämatologische Zellen (CEM, HL-60) wurden für 24 Stunden mit unterschiedlichen Dosen verschiedener Triazenverbindungen inkubiert, um die IC50 zu bestimmen.

**Q.** Which results are given for `CN(C)N=Nc1ccc(C(=O)c2ccc(O)cc2)cc1` [Beispiel 1]?
**A.** Ausgangssubstanz metabolisiert (HepG2): 28%; metabolisiert (MCF-7-Zellen; innerhalb von 1 Stunde): mehr als der Hälfte; metabolisiert (MCF-7-Zellen; nach 3 Stunden): vollständig metabolisiert; intrazelluläre Konzentration vs. Vergleichssubstanzen (HCT-8): deutlich schneller und für die ersten beiden Messpunkte auch in höherer Konzentration intrazellulär nachweisbar; antitumorale Aktivität (IC50) compared with Vergleichssubstanzen [1]: deutliche Überlegenheit; Entwicklung der Tumorgewichte (Mammakarzinome): zu jedem Beobachtungszeitpunkt langsamer als unter einer Therapie mit den verwendeten Vergleichssubstanzen; IC50 (CEM; mean of Exp. 1-4, read-out: IC50 Mittelwert): 22.8 µM; IC50 (CEM; read-out: IC50 Exp. 1): 23.4 µM; IC50 (CEM; read-out: IC50 Exp. 2): 29.7 µM; IC50 (CEM; read-out: IC50 Exp. 3): 23.8 µM; IC50 (CEM; read-out: IC50 Exp. 4): 14.1 µM
